Source: US20250304644A1, “PEPTIDES TRIPLE AGONISTS OF GIP, GLP-1 AND GLP-2” (BAINAN BIOTECH APS, priority 2021, published 2025)
Where a SMILES comes first, the peptide text is derived from it. [ ]: non-standard residue; d: D form. The star is where a group is joined. Decanoyl = CCCCCCCCCC(=O)*; Aib = CC(C)(N)C(=O)O

Experiments:
Assay type in all cases: cell-based
human GIPR = target: T1, human GIPR (Homo sapiens, UniProt P48546); assay: cAMP assay (HitHunter) in transiently transfected COS-7 cells expressing human GIPR; conditions: for Emax: COS-7, normalized to highest concentration of the endogenous ligand, read-out: Efficacy GIPR (Emax)
T1 construct: host or cells: COS-7
T1 sequence (P48546 22-466): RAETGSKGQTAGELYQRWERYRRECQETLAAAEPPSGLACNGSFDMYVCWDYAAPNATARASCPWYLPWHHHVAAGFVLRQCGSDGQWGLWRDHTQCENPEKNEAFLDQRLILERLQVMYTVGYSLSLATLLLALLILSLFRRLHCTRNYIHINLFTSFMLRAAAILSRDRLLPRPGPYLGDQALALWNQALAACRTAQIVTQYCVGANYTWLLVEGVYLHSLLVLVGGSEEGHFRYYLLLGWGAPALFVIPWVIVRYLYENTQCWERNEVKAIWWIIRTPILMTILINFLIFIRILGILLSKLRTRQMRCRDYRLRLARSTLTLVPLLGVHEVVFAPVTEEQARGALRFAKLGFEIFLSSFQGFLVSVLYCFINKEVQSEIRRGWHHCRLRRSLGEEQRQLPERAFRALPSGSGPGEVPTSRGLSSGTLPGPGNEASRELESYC

human GLP-2R = target: T2, human GLP-2R (Homo sapiens, UniProt O95838); assay: cAMP assay (HitHunter) in transiently transfected COS-7 cells expressing human GLP-2R; conditions: for Emax: COS-7, normalized to highest concentration of the endogenous ligand, read-out: Efficacy GLP-2R (Emax)
T2 construct: host or cells: COS-7
T2 sequence (O95838 1-553): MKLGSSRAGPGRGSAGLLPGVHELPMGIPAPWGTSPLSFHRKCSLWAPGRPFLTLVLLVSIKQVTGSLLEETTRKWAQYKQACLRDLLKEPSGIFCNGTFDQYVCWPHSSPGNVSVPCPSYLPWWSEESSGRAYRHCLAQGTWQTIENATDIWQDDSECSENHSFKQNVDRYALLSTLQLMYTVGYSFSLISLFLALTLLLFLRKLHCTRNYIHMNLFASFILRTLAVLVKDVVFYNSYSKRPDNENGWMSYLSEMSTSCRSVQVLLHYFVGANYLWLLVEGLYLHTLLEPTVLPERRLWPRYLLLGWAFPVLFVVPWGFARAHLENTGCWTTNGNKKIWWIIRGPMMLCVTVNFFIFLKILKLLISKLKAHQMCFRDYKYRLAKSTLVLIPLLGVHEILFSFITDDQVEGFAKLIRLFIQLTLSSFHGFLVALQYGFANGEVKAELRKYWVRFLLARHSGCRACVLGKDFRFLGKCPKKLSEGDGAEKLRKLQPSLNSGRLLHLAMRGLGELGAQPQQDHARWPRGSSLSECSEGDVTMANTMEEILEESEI
Description: The next day the assay was initiated by washing with HEPES buffered saline (HBS) and followed by an incubation step with assay buffer (HBS added 1 mM isobutyl-1-methylxanthine (IBMX)) for 30 min at 37° C. The ligands were then added and incubated for an additional 30 min at 37° C. After ligand incubation, the HitHunter® CAMP assay (Eurofins DiscoverX, Fremont, […] USA) was carried out according to the manufacturer's instructions. […] The potencies (EC50 values) were determined by nonlinear regression using GraphPad Prism 9 (San Diego, California, USA). Sigmoid curves were fitted logistically. The efficacies (Emax values) were determined by normalization to the highest concentration applied of the endogenous ligand for each receptor.

human GLP-1R = target: T3, human GLP-1R (Homo sapiens, UniProt P43220); assay: cAMP assay (HitHunter) in transiently transfected COS-7 cells expressing human GLP-1R; conditions: for Emax: COS-7, normalized to highest concentration of the endogenous ligand, read-out: Efficacy GLP-1R (Emax)
T3 construct: host or cells: COS-7
T3 sequence (P43220 24-463): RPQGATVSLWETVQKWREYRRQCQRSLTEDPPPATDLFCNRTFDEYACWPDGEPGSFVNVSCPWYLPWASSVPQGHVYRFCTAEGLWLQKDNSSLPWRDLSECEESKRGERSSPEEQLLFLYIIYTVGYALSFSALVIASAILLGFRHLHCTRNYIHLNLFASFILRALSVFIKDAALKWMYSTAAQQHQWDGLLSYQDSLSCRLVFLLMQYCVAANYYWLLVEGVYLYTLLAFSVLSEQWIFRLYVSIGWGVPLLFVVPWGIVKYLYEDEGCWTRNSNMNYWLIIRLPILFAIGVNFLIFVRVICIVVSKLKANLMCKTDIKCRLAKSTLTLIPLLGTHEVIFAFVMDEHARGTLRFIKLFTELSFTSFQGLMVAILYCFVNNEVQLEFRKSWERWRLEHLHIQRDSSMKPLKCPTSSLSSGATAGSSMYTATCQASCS

human SNAP-tagged GIPR = target: T4, human SNAP-tagged GIPR (Homo sapiens, UniProt P48546); assay: Receptor internalization assay, HEK293A cells expressing human SNAP-tagged GIPR; conditions: AUC of sigmoid curves up to 1 μM; 60 minutes at 37° C.
T4 construct: host or cells: HEK293A
T4 sequence (P48546 22-466): T1 sequence (P48546 22-466)

Row | Emax (human GIPR) [%] | Emax (human GLP-2R) [%] | EC50 (human GLP-2R; cAMP, COS-7 cells, human GLP-2R, read-out: EC50 (nM) GLP-2R) [nM] | Emax (human GLP-1R) [%] | Absolute hGIPR internalization (AUC) (human SNAP-tagged GIPR) | EC50 (human GIPR; cAMP, COS-7 cells, human GIPR) [nM] | EC50 (human GLP-1R; cAMP, COS-7 cells, human GLP-1R, read-out: EC50 (nM) GLP-1R) [nM] | SMILES
1 | 93 | 96 | 2 | 101 | 5.3 |  |  | CCCCCCCCCC(=O)NCCCC[C@H](NC(=O)[C@@H](NC(=O)[C@@H](NC(=O)[C@H](CCCCN)NC(=O)[C@@H](NC(=O)[C@H](CCC(N)=O)NC(=O)[C@@H](NC(=O)[C@H](CC(C)C)NC(=O)[C@H](Cc1c[nH]c2ccccc12)NC(=O)[C@H](CC(N)=O)NC(=O)[C@@H](NC(=O)[C@H](Cc1ccccc1)NC(=O)[C@H](CC(=O)O)NC(=O)[C@H](CCCNC(=N)N)NC(=O)[C@H](C)NC(=O)[C@H](C)NC(=O)[C@H](CC(C)C)NC(=O)[C@H](CC(N)=O)NC(=O)[C@H](CC(=O)O)NC(=O)[C@H](CC(C)C)NC(=O)[C@@H](NC(=O)[C@@H](NC(=O)[C@H](CO)NC(=O)[C@H](Cc1ccc(O)cc1)NC(=O)[C@H](CC(=O)O)NC(=O)[C@H](CO)NC(=O)[C@@H](NC(=O)[C@H](Cc1ccccc1)NC(=O)[C@@H](NC(=O)CNC(=O)[C@H](CC(=O)O)NC(=O)C(C)(C)NC(=O)[C@@H](N)Cc1c[nH]cn1)[C@@H](C)O)[C@@H](C)CC)[C@@H](C)O)[C@@H](C)CC)[C@@H](C)CC)[C@@H](C)CC)[C@@H](C)O)[C@@H](C)CC)[C@@H](C)O)C(N)=O [Compound 1]
2 | 99 | 93 |  | 59 |  | 1 |  | CCCCCCCCCC(=O)NCCCC[C@H](NC(=O)[C@@H](NC(=O)[C@@H](NC(=O)[C@H](CCCCN)NC(=O)[C@@H](NC(=O)[C@H](CCC(N)=O)NC(=O)[C@@H](NC(=O)[C@H](CC(C)C)NC(=O)[C@H](Cc1c[nH]c2ccccc12)NC(=O)[C@H](CC(N)=O)NC(=O)[C@@H](NC(=O)[C@H](Cc1ccccc1)NC(=O)[C@H](CC(=O)O)NC(=O)[C@H](CCCNC(=N)N)NC(=O)[C@H](C)NC(=O)[C@H](C)NC(=O)[C@H](CC(C)C)NC(=O)[C@H](CC(N)=O)NC(=O)[C@H](CC(=O)O)NC(=O)[C@H](CC(C)C)NC(=O)[C@@H](NC(=O)[C@@H](NC(=O)[C@H](CO)NC(=O)[C@H](Cc1ccc(O)cc1)NC(=O)[C@H](CC(=O)O)NC(=O)[C@H](CO)NC(=O)[C@@H](NC(=O)[C@H](Cc1ccccc1)NC(=O)[C@@H](NC(=O)CNC(=O)[C@H](CC(=O)O)NC(=O)C(C)(C)NC(=O)[C@@H](N)Cc1ccc(O)cc1)[C@@H](C)O)[C@@H](C)CC)[C@@H](C)O)[C@@H](C)CC)[C@@H](C)CC)[C@@H](C)CC)[C@@H](C)O)[C@@H](C)CC)[C@@H](C)O)C(N)=O [Compound 16] (H-Y[Aib]DGTFISDYSTILDNLAARDFINWLIQTKITK(Decanoyl)-NH2; N-terminus assumed)
3 | 97 | 92 |  | 107 |  |  |  | CCCCCCCCCC(=O)N[C@@H](CCC(=O)NCCCC[C@H](NC(=O)[C@@H](NC(=O)[C@@H](NC(=O)[C@H](CCCCN)NC(=O)[C@@H](NC(=O)[C@H](CCC(N)=O)NC(=O)[C@@H](NC(=O)[C@H](CC(C)C)NC(=O)[C@H](Cc1c[nH]c2ccccc12)NC(=O)[C@H](CC(N)=O)NC(=O)[C@@H](NC(=O)[C@H](Cc1ccccc1)NC(=O)[C@H](CC(=O)O)NC(=O)[C@H](CCCNC(=N)N)NC(=O)[C@H](C)NC(=O)[C@H](C)NC(=O)[C@H](CC(C)C)NC(=O)[C@H](CC(N)=O)NC(=O)[C@H](CC(=O)O)NC(=O)[C@H](CC(C)C)NC(=O)[C@@H](NC(=O)[C@@H](NC(=O)[C@H](CO)NC(=O)[C@H](Cc1ccc(O)cc1)NC(=O)[C@H](CC(=O)O)NC(=O)[C@H](CO)NC(=O)[C@@H](NC(=O)[C@H](Cc1ccccc1)NC(=O)[C@@H](NC(=O)CNC(=O)[C@H](CC(=O)O)NC(=O)C(C)(C)NC(=O)[C@@H](N)Cc1c[nH]cn1)[C@@H](C)O)[C@@H](C)CC)[C@@H](C)O)[C@@H](C)CC)[C@@H](C)CC)[C@@H](C)CC)[C@@H](C)O)[C@@H](C)CC)[C@@H](C)O)C(N)=O)C(=O)O [Compound 17]
4 | 82 | 91 |  | 112 | 2.1 |  | 0.06 | CC[C@H](C)[C@H](NC(=O)[C@H](Cc1ccccc1)NC(=O)[C@H](CC(=O)O)NC(=O)[C@H](CCCCNC(=O)COCCOCCNC(=O)COCCOCCNC(=O)CC[C@H](NC(=O)CCCCCCCCCCCCCCCCC(=O)O)C(=O)O)NC(=O)[C@H](C)NC(=O)[C@H](C)NC(=O)[C@H](CC(C)C)NC(=O)[C@H](CC(N)=O)NC(=O)[C@H](CC(=O)O)NC(=O)[C@H](CC(C)C)NC(=O)[C@@H](NC(=O)[C@@H](NC(=O)[C@H](CO)NC(=O)[C@H](Cc1ccc(O)cc1)NC(=O)[C@H](CC(=O)O)NC(=O)[C@H](CO)NC(=O)[C@@H](NC(=O)[C@H](Cc1ccccc1)NC(=O)[C@@H](NC(=O)CNC(=O)[C@H](CC(=O)O)NC(=O)[C@H](C)NC(=O)[C@@H](N)Cc1c[nH]cn1)[C@@H](C)O)[C@@H](C)O)[C@@H](C)O)[C@@H](C)CC)C(=O)N[C@@H](CC(N)=O)C(=O)N[C@@H](Cc1c[nH]c2ccccc12)C(=O)N[C@@H](CC(C)C)C(=O)N[C@H](C(=O)N[C@@H](CCC(N)=O)C(=O)N[C@H](C(=O)N[C@@H](CCCCN)C(=O)NCC(=O)N[C@@H](CCCCN)C(=O)N[C@@H](CCCCN)C(=O)O)[C@@H](C)O)[C@@H](C)CC [Compound 18]
